# Results from patent publication US11274131B2, “IgM-mediated receptor clustering and cell modulation” (MAYO FOUNDATION FOR MEDICAL EDUCATION AND RESEARCH, priority 2007, dated 2022).
# Tested on: matured mouse DC
# Test: Antigen uptake assay, matured mouse DC
# Format: cell-based
# Protocol: For transducing DC with the virus, 1 ml of supernatant containing the scrambled virus or shDNA containing dominant negative TREM-2 virus was mixed with 2 ml of RPMI. Cytokines were added to a final concentration of 10 ng/ml murine GM-CSF and 1 ng/ml murine IL-4 at day 2 of DC culture. Cells were maintained for another 3 days before using the DC for antigen uptake assay as mentioned above or for analysis of phosphorylation status of DAP12 and Syk proteins.
# Antigen uptake experiments were carried out as described previously (Radhakrishnan et al. (2005) Proc. Natl. Acad. Sci. U.S.A. 102:11438-11443). Day 5 DC were matured with TLR ligand CpG-ODN for mouse DC, or with pI:C for human DC. The matured cells were incubated with ovalbumin labeled with FITC or APC and control antibody or B7-DC XAb for two hours, washed and analyzed by FACSCALIBUR™ (Becton Dickinson). In studies involving inhibitors, cells were pretreated 30 minutes as indicated or at 10 μM concentration prior to addition of control antibody or B7-DC XAb. In vivo antigen uptake assays involving wild type or TREM-2−/− mice were carried out by intravenous injection of 10 μg of control antibody or B7-DC XAb on three consecutive days (days −1, 0 and +1). Ovalbumin coupled to FITC was injected in the right foot pad at 1 mg/ml in PBS at […]. The draining lymph node cells were harvested 48 hours after injection of antigen, and stained with anti-mouse CD11c-PE. The data are expressed as percent green cells (ovalbumin-FITC) that are positive for CD11c.
substance,measurement,setting,value
B7-DC XAb: human monoclonal IgM from a Waldenstrom's macroglobulinemia patient that binds and cross-links B7-DC on DC,antigen uptake,DC from CD40 KO mice,displayed enhanced antigen uptake
same,ovalbumin uptake by matured DC,DC transduced with scrambled shDNA,enhanced ovalbumin uptake
same,ovalbumin uptake by matured DC,TREM-2 KO DC,did not regain the ability to take up ovalbumin
